Measurements from ChEMBL document CHEMBL1147140, “Strongylophorine-26, an inhibitor of cancer cell Invasion: SAR revealed by synthesis of analogues” (J Nat Prod, 2007).
Values after ≈ are worked out from the molar mass of the structure shown. Active and inactive are the calls of the source. The calls are words filed in the database; no cut-off is given here.

Key:
MDA-MB-231 [1] = assay: Cytotoxicity against human MDA-MB-231 cells; format: cell-based
MDA-MB-231 [2] = assay: Anti-invasive activity against human MDA-MB-231 cells at <= 0.3 ug/ml; format: functional, cell-based

Row | SMILES | Activity (MDA-MB-231 [2]) | other results
1 | COC1=CC(=O)C=C(C[C@H]2[C@]3(C)CC[C@H]4C(C)(C)CCC[C@]4(C)[C@H]3CC[C@]2(C)O)C1=O (stereo in doubt; (+)-3) [listing 1 of 2 here] |  | IC50 (MDA-MB-231 [1]; mda-mb-231): 0.3 µg/mL (≈ 0.7 µM)
2 | COC1=CC(=O)C=C(C[C@H]2[C@]3(C)CC[C@H]4C(C)(C)CCC[C@]4(C)[C@H]3CC[C@]2(C)O)C1=O (stereo in doubt; (-)-3) [listing 1 of 2 here] | inactive | 
3 | COC1=CC(=O)C=C(C[C@H]2[C@]3(C)CC[C@H]4C(C)(C)CCC[C@]4(C)[C@H]3CC[C@]2(C)O)C1=O (stereo in doubt; (+)-3) [listing 2 of 2 here] | inactive | 
4 | COC1=CC(=O)C=C(C[C@H]2[C@]3(C)CC[C@H]4C(C)(C)CCC[C@]4(C)[C@H]3CC[C@]2(C)O)C1=O (stereo in doubt; (-)-3) [listing 2 of 2 here] |  | IC50 (MDA-MB-231 [1]; Homo sapiens, MDA-MB-231, read-out: IC50): 0.3 µg/mL (≈ 0.7 µM)
